# Legend:
# in vitro = details: rabbit, Ptot (apparent permeability coefficient) [corneal permeability]
# [1] = corneal permeability, literature value; cited from earlier work
compound,measurement,setting,value
"CC(CO)(CO)[N+](=O)[O-] [MNPD, 2-methyl-2-nitro-1,3-propanediol]","Papp at 120 min, 100 mM",in vitro,4.37 ×10⁻⁶ cm/s
OC[C@@H](O)[C@@H](O)[C@H](O)[C@H](O)CO [mannitol],Ptot,[1],2.4 ×10⁻⁶ cm/s

# From PMC3493702 (Cornea, 2013)
